Data published in patent US8846656B2, “Tetrahydropyrido-pyridine and tetrahydropyrido-pyrimidine compounds and use thereof as C5a receptor modulators” (Novartis AG, priority 2011, dated 2014).

Tests used:
CD11b = assay: Human whole blood CD11b up-regulation assay; type: cell-based; details: Homo sapiens, 2 nM human C5a, CD15+ granulocytes, read-out: hCD11b IC50
Method: Whole blood was collected in sodium heparin tubes and the assay started within 2 hours of the blood draw. The blood was incubated with compounds in 1% DMSO (dimethyl sulfoxide) at room temperature for 10 minutes with gentle rocking. 2 nM of human C5a was then added for 15 minutes at room temperature with gentle rocking. Following the C5a incubation period cells were washed once with cold FACS (fluorescence-activated cell sorting) buffer (phosphate buffered saline+0.5% bovine serum albumin) FITC (fluorescein isothiocyanate) mouse anti-human CD15 and PE-Cy5 (phycoerythrin-cyanine 5) mouse anti-human CD11b antibodies (Becton Dickinson) were gently mixed with the cells and allowed to incubate for 30 minutes on ice protected from the light. Cells were then washed three times with cold FACS buffer. Red blood cells (RBC) were lysed by incubating with BD FACS lysis buffer (Becton Dickinson) for 10 minutes at room temperature. Cells were pelleted and the lysing procedure was repeated until all RBCs were lysed. The remaining leukocytes were resuspended in BD lysis buffer. Samples were acquired on the LSR^11 flow cytometer and 10,000 events of the CD15+ granulocyte population were collected. The CD11b median fluorescence intensity of the CD 15+ cell population was evaluated using FACSDiva software (Becton Dickinson).

human C5aR = human C5aR (Homo sapiens (Human), UniProt P21730); assay: FLIPR assay: inhibition of C5a-mediated calcium mobilization; type: cell-based; details: stable cell line over expressing human C5aR & Gα15, human C5a at EC50 (0.1-0.25 nM)
Chain of human C5aR (P21730 whole entry): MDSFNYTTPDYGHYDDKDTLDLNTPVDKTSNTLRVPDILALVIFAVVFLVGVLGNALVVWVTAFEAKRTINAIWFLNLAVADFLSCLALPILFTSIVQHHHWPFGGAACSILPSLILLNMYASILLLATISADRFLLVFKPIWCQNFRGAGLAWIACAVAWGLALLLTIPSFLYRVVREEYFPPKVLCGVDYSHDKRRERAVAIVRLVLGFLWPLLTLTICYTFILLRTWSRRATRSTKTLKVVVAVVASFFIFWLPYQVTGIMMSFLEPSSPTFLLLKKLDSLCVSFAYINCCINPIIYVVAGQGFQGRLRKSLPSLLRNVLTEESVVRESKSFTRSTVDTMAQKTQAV
Method: Compounds were tested for their ability to inhibit C5a-mediated calcium mobilization using a stable cell line over expressing the human C5aR & the Gα15 protein on the FLIPR (Fluorescent Imaging Plate Reader) Tetra system. Cells were maintained in culture media containing DMEM (Dulbecco's Modified Eagle Medium) with 4.5 g/L glucose, 10% fetal bovine serum, 100 U/mL, 1× non-essential amino acid, and 250 μg/mL G418 (Geneticin). Prior to testing of compounds, cells were plated at 10,000 cells/well in clear bottom 384-well black plate, and incubated overnight at 37° C. with 5% CO2. On the day of experiment, culture media was removed, and replaced with assay buffer HBSS (Hanks' Balanced Salt Solution) with 20 mM HEPES (4-(2-hydroxyethyl)-1-piperazineethanesulfonic acid) and 0.1% BSA (bovine serum albumin) BSA containing calcium 5 dye (Molecular Devices) and 2.5 mM probenecid. After 1 hour incubation at 37° C., 5% CO2 for 60 min, cells were pre-incubated with compounds for 30 minutes at room temperature, in 1% DMSO (dimethyl sulfoxide).

Compound	IC50 (CD11b) [nM]	IC50 (human C5aR) [nM]
COc1ccc(C)c(N2CCc3nc(-c4c(C(C)C)ccc5[nH]ncc45)nc(N4CC[C@H](OC)C(C)(C)C4)c3C2)c1 [Example 19-AE, (S)-2-(5-isopropyl-1H-indazol-4-yl)-6-(5-methoxy-2-methylphenyl)-4-(4-methoxy-3,3-dimethylpiperidin-1-yl)-5,6,7,8-tetrahydropyrido[4,3-d]pyrimidine]	22	4
CO[C@@H]1CCN(c2nc(-c3c(C)ccc4[nH]nc(C)c34)nc3c2CN(c2cc(C(C)C)ccc2C)CC3)CC1(C)C [Example 21-AI, (R)-2-(3,5-dimethyl-1H-indazol-4-yl)-6-(5-isopropyl-2-methylphenyl)-4-(4-methoxy-3,3-dimethylpiperidin-1-yl)-5,6,7,8-tetrahydropyrido[4,3-d]pyrimidine]	8	1
Cc1ccccc1N1CCc2nc(-c3c(C)cccc3C)nc(N(C)CC(C)(C)O)c2C1 [Example 17-H, 1-((2-(2,6-Dimethylphenyl)-6-(o-tolyl)-5,6,7,8-tetrahydropyrido[4,3-d]pyrimidin-4-yl)(methyl)amino)-2-methylpropan-2-ol]	300	10
Cc1ccccc1N1CCc2nc(-c3c(C)cccc3C)nc(N(C)C)c2C1 [Example 17-T, 2-(2,6-dimethylphenyl)-N,N-dimethyl-6-(o-tolyl)-5,6,7,8-tetrahydropyrido[4,3-d]pyrimidin-4-amine]	451	54
CO[C@H]1CCN(c2nc(-c3c(C)ccc4[nH]nc(C)c34)nc3c2CN(c2cc(C(C)C)ccc2C)CC3)CC1(C)C [Example 19-AI, (S)-2-(3,5-dimethyl-1H-indazol-4-yl)-6-(5-isopropyl-2-methylphenyl)-4-(4-methoxy-3,3-dimethylpiperidin-1-yl)-5,6,7,8-tetrahydropyrido[4,3-d]pyrimidine]	7	2

Continued, values first:

IC50 (CD11b) [nM]	IC50 (human C5aR) [nM]	Compound
19	1	Cc1ccc(C(C)C)cc1N1CCc2nc(-c3c(C)ccc4[nH]nc(C)c34)nc(N3CCC3C)c2C1 (single isomer, unassigned) [Example 65-I, 2-(3,5-dimethyl-1H-indazol-4-yl)-6-(5-isopropyl-2-methylphenyl)-4-(2-methylazetidin-1-yl)-5,6,7,8-tetrahydropyrido[4,3-d]pyrimidine]
24	1	CO[C@@H]1CCN(c2nc(-c3c(C)ccc4[nH]nc(C)c34)nc3c2CN(c2cc(C4CC4)nn2C)CC3)[C@H](C)C1 [Example 23-H, 6-(3-cyclopropyl-1-methyl-1H-pyrazol-5-yl)-2-(3,5-dimethyl-1H-indazol-4-yl)-4-((2R,4R)-4-methoxy-2-methylpiperidin-1-yl)-5,6,7,8-tetrahydropyrido[4,3-d]pyrimidine]
1420	56	[2H]C1([2H])c2c(C)cc(-c3cccc4[nH]cc(C)c34)nc2CCN1c1c(C)nn(CC)c1C [Example 47-B, 6-(1-Ethyl-3,5-dimethyl-1H-pyrazol-4-yl)-4-methyl-2-(3-methyl-1H-indol-4-yl)-5,6,7,8-tetrahydro(5,5-^2H2)-1,6-naphthyridine]
29	23	Cc1ccc(C(C)C)cc1N1CCc2nc(-c3c(C)ccc4[nH]nc(C)c34)nc(OCC(F)F)c2C1 [Example 63-E, 4-(2,2-difluoroethoxy)-2-(3,5-dimethyl-1H-indazol-4-yl)-6-(5-isopropyl-2-methylphenyl)-5,6,7,8-tetrahydropyrido[4,3-d]pyrimidine]
95	40	CO[C@@H]1CCN(c2nc(-c3c(C)cccc3C)nc3c2CN(c2cc(C(C)C)nn2C)CC3)[C@H](C)C1 [Example 23-C, 2-(2,6-dimethylphenyl)-6-(3-isopropyl-1-methyl-1H-pyrazol-5-yl)-4-((2R,4R)-4-methoxy-2-methylpiperidin-1-yl)-5,6,7,8-tetrahydropyrido[4,3-d]pyrimidine]
